Laboratory results as given in ChEMBL document CHEMBL3632477 (2015).
Where a SMILES comes first, the peptide text is derived from it. Bridges are numbered along the chain shown (N, C = ends). [ ]: non-standard residue; d: D form. ξ: configuration not given here. Bip(2'-Et-4'-OMe) = CCc1cc(OC)ccc1-c1ccc(C[C@H](N)C(=O)O)cc1; αMePhe(2,6-F2) = C[C@](N)(Cc1c(F)cccc1F)C(=O)O; Bip = N[C@@H](Cc1ccc(-c2ccccc2)cc1)C(=O)O; αMePhe(2-F) = C[C@](N)(Cc1ccccc1F)C(=O)O; ξαMePhe(2-F) = CC(N)(Cc1ccccc1F)C(=O)O; hhPhe = N[C@@H](CCCc1ccccc1)C(=O)O; αMeF = C[C@](N)(Cc1ccccc1)C(=O)O; Pen = CC(C)(S)[C@H](N)C(=O)O; Aib = CC(C)(N)C(=O)O

These compounds were tested against Glucagon-like peptide 1 receptor (Homo sapiens, UniProt P43220) (assay: Agonist activity at human GLP-1R expressed in CHO-K1 cells assessed as increase in cAMP level incubated for 30 mins).
Glucagon-like peptide 1 receptor, sequence (P43220 whole entry): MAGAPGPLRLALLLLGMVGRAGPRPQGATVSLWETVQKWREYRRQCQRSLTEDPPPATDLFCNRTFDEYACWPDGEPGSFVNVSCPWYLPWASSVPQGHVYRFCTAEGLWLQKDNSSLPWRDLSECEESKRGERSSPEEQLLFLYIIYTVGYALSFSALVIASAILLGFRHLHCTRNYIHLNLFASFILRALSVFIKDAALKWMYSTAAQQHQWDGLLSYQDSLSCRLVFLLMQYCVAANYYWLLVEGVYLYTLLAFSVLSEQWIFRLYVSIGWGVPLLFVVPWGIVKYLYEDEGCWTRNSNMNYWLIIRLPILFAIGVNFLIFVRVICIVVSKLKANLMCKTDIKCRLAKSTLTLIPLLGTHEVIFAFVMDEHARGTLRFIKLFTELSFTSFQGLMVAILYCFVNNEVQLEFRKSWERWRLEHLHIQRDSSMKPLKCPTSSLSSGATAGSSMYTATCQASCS
Assay type: functional, cell-based

Point of comparison: `CCc1cc(OC)ccc1-c1ccc(C[C@@H]2NC(=O)[C@H](CC(=O)O)NC(=O)[C@H](CO)NC(=O)[C@H]([C@@H](C)O)NC(=O)[C@](C)(Cc3c(F)cccc3F)NC(=O)[C@H]([C@@H](C)O)NC(=O)CNC(=O)[C@H](CCC(=O)O)NC(=O)[C@@H]3CCCN3C(=O)[C@H](Cc3cnc[nH]3)NC(=O)[C@H](CO)NC(=O)[C@@H]3CSSC[C@H](NC(=O)[C@H](CCCc4ccccc4)NC2=O)C(=O)NCC(=O)NCC(=O)N[C@@H](C)C(=O)N[C@@H](C)C(=O)NCC(=O)NCC(=O)NCC(=O)N[C@@H](C)C(=O)N3)cc1` (cyclo(AAGGGACSHPEGT[αMePhe(2,6-F2)]TSD[Bip(2'-Et-4'-OMe)][hhPhe]CGG); disulfide 7-20), EC50 430 nM. Against it:
- CCc1cc(OC)ccc1-c1ccc(C[C@@H]2NC(=O)[C@H](CC(=O)O)NC(=O)[C@H](CO)NC(=O)[C@@H]3CSSC[C@@H](C(=O)O)NC(=O)[C@H](CSSC[C@H](NC(=O)CNC(=O)[C@H](CCC(=O)O)NC(=O)C(C)(C)NC(=O)[C@@H](N)Cc4cnc[nH]4)C(=O)NC(C)(Cc4ccccc4F)C(=O)N3)NC(=O)[C@H](CC(C)C)NC(=O)[C@H](CCCc3ccccc3)NC2=O)cc1 (some centres not stated) (H-H[Aib]EGC[ξαMePhe(2-F)]CSD[Bip(2'-Et-4'-OMe)][hhPhe]LCC-OH; disulfide 5-13, 7-14) — 12-fold higher, 5000 nM
- CC(C)C[C@@H]1NC(=O)[C@H](Cc2ccccc2)NC(=O)[C@H](CC(N)=O)NC(=O)[C@H](CCCNC(=N)N)NC(=O)[C@H](CCCCN)NC(=O)[C@@H]2CSSC[C@@H](C(N)=O)NC(=O)[C@H](CSSC[C@H](NC(=O)[C@@H](N)CO)C(=O)N[C@@H](CO)C(=O)N2)NC1=O (H-SCSCKRNFLCC-NH2; disulfide 2-10, 4-11) — 910-fold lower, 0.47 nM
- CCc1cc(OC)ccc1-c1ccc(C[C@@H]2NC(=O)[C@H](CC(=O)O)NC(=O)[C@H](CO)NC(=O)[C@H]([C@@H](C)O)NC(=O)[C@H](Cc3ccccc3)NC(=O)[C@H]([C@@H](C)O)NC(=O)CNC(=O)[C@H](CCC(=O)O)NC(=O)[C@@H]3CCCN3C(=O)[C@H](Cc3cnc[nH]3)NC(=O)[C@H](CO)NC(=O)[C@@H]3CSSC[C@H](NC(=O)[C@H](CCCc4ccccc4)NC2=O)C(=O)NCC(=O)NCC(=O)N[C@@H](C)C(=O)N[C@@H](C)C(=O)NCC(=O)NCC(=O)NCC(=O)N[C@@H](C)C(=O)N3)cc1 (cyclo(AAGGGACSHPEGTFTSD[Bip(2'-Et-4'-OMe)][hhPhe]CGG); disulfide 7-20) — within 1.5-fold, 390 nM
- CCc1cc(OC)ccc1-c1ccc(C[C@@H]2NC(=O)[C@H](CC(=O)O)NC(=O)[C@H](CO)NC(=O)[C@H]([C@@H](C)O)NC(=O)[C@](C)(Cc3ccccc3)NC(=O)[C@H]([C@@H](C)O)NC(=O)CNC(=O)[C@H](CCC(=O)O)NC(=O)[C@@H]3CCCN3C(=O)[C@H](Cc3cnc[nH]3)NC(=O)[C@H](CO)NC(=O)[C@@H]3CSSC[C@H](NC(=O)[C@H](CCCc4ccccc4)NC2=O)C(=O)NCC(=O)NCC(=O)N[C@@H](C)C(=O)N[C@@H](C)C(=O)NCC(=O)NCC(=O)NCC(=O)N[C@@H](C)C(=O)N3)cc1 (cyclo(AAGGGACSHPEGT[αMeF]TSD[Bip(2'-Et-4'-OMe)][hhPhe]CGG); disulfide 7-20) — 4.7-fold higher, 2000 nM
- CCc1cc(OC)ccc1-c1ccc(C[C@@H]2NC(=O)[C@H](CC(=O)O)NC(=O)[C@H](CO)NC(=O)[C@H]([C@@H](C)O)NC(=O)[C@](C)(Cc3ccccc3)NC(=O)[C@H]([C@@H](C)O)NC(=O)CNC(=O)[C@H](CCC(=O)O)NC(=O)[C@@H]3CCCN3C(=O)[C@H](Cc3cnc[nH]3)NC(=O)[C@H](CO)NC(=O)[C@@H]3CSSC[C@H](NC(=O)[C@H](CCCc4ccccc4)NC2=O)C(=O)NCC(=O)N[C@@H](Cc2ccc(-c4ccccc4)cc2)C(=O)N[C@@H](C)C(=O)N[C@@H](C)C(=O)NCC(=O)NCC(=O)NCC(=O)N[C@@H](C)C(=O)N3)cc1 (cyclo(AAGGGACSHPEGT[αMeF]TSD[Bip(2'-Et-4'-OMe)][hhPhe]CG[Bip]); disulfide 7-20) — within 1.5-fold, 360 nM
- CCc1cc(OC)ccc1-c1ccc(C[C@@H]2NC(=O)[C@H](CC(=O)O)NC(=O)[C@H](CO)NC(=O)[C@H]([C@@H](C)O)NC(=O)[C@](C)(Cc3c(F)cccc3F)NC(=O)[C@H]([C@@H](C)O)NC(=O)CNC(=O)[C@H](CCC(=O)O)NC(=O)[C@@H]3CCCN3C(=O)[C@H](Cc3cnc[nH]3)NC(=O)[C@H](CO)NC(=O)[C@@H]3CSSC[C@H](NC(=O)[C@H](CCCc4ccccc4)NC2=O)C(=O)NCC(=O)N[C@@H](Cc2ccc(-c4ccccc4)cc2)C(=O)N[C@@H](C)C(=O)N[C@@H](C)C(=O)NCC(=O)NCC(=O)NCC(=O)N[C@@H](C)C(=O)N3)cc1 (cyclo(AAGGGACSHPEGT[αMePhe(2,6-F2)]TSD[Bip(2'-Et-4'-OMe)][hhPhe]CG[Bip]); disulfide 7-20) — within 1.5-fold, 470 nM
- CCc1cc(OC)ccc1-c1ccc(C[C@@H]2NC(=O)[C@H](CC(=O)O)NC(=O)[C@H](CO)NC(=O)[C@H]([C@@H](C)O)NC(=O)[C@](C)(Cc3ccccc3F)NC(=O)[C@H]([C@@H](C)O)NC(=O)CNC(=O)[C@H](CCC(=O)O)NC(=O)[C@@H]3CCCN3C(=O)[C@H](Cc3cnc[nH]3)NC(=O)[C@H](CO)NC(=O)[C@@H]3CSSC[C@H](NC(=O)[C@H](CCCc4ccccc4)NC2=O)C(=O)NCC(=O)NCC(=O)N[C@@H](C)C(=O)N[C@@H](C)C(=O)NCC(=O)NCC(=O)NCC(=O)N[C@@H](C)C(=O)N3)cc1 (cyclo(AAGGGACSHPEGT[αMePhe(2-F)]TSD[Bip(2'-Et-4'-OMe)][hhPhe]CGG); disulfide 7-20) — 2.3-fold higher, 1000 nM
- CCc1cc(OC)ccc1-c1ccc(C[C@@H]2NC(=O)[C@H](CC(=O)O)NC(=O)[C@H](CO)NC(=O)[C@H]([C@@H](C)O)NC(=O)[C@](C)(Cc3c(F)cccc3F)NC(=O)[C@H]([C@@H](C)O)NC(=O)CNC(=O)[C@H](CCC(=O)O)NC(=O)C(C)(C)NC(=O)[C@H](Cc3cnc[nH]3)NC(=O)[C@H](CO)NC(=O)[C@@H]3CSSC[C@H](NC(=O)[C@H](CCCc4ccccc4)NC2=O)C(=O)NCC(=O)NCC(=O)N[C@@H](C)C(=O)N[C@@H](C)C(=O)NCC(=O)NCC(=O)NCC(=O)N[C@@H](C)C(=O)N3)cc1 (cyclo(AAGGGACSH[Aib]EGT[αMePhe(2,6-F2)]TSD[Bip(2'-Et-4'-OMe)][hhPhe]CGG); disulfide 7-20) — 3.3-fold higher, 1400 nM
- CCc1cc(OC)ccc1-c1ccc(C[C@@H]2NC(=O)[C@H](CC(=O)O)NC(=O)[C@H](CO)NC(=O)[C@H]([C@@H](C)O)NC(=O)[C@](C)(Cc3c(F)cccc3F)NC(=O)[C@H]([C@@H](C)O)NC(=O)CNC(=O)[C@H](CCC(=O)O)NC(=O)[C@@H]3CCCN3C(=O)[C@H](Cc3cnc[nH]3)NC(=O)[C@H](CO)NC(=O)[C@H](C(C)(C)S)NC(=O)[C@H](C)NC(=O)CNC(=O)CNC(=O)CNC(=O)[C@H](C)NC(=O)[C@H](C)NC(=O)CNC(=O)CNC(=O)[C@H](C(C)(C)S)NC(=O)[C@H](CCCc3ccccc3)NC2=O)cc1 (cyclo(AAGGGA[Pen]SHPEGT[αMePhe(2,6-F2)]TSD[Bip(2'-Et-4'-OMe)][hhPhe][Pen]GG)) — 4.7-fold higher, 2000 nM
- CCc1cc(OC)ccc1-c1ccc(C[C@@H]2NC(=O)[C@H](CC(=O)O)NC(=O)[C@H](CO)NC(=O)[C@H]([C@@H](C)O)NC(=O)[C@](C)(Cc3ccccc3)NC(=O)[C@H]([C@@H](C)O)NC(=O)CNC(=O)[C@H](CCC(=O)O)NC(=O)[C@@H]3CCCN3C(=O)[C@H](Cc3cnc[nH]3)NC(=O)[C@H](CO)NC(=O)[C@@H]3CSSC[C@H](NC(=O)[C@H](CCCc4ccccc4)NC2=O)C(=O)NCC(=O)NCC(=O)N[C@@H](CC(C)C)C(=O)N[C@@H](CC(C)C)C(=O)N[C@@H](CC(C)C)C(=O)NCC(=O)N[C@@H](CC(C)C)C(=O)N[C@@H](CC(C)C)C(=O)N3)cc1 (cyclo(CGGLLLGLLCSHPEGT[αMeF]TSD[Bip(2'-Et-4'-OMe)][hhPhe]); disulfide 1-10) — 6.5-fold higher, 2800 nM
- CCc1cc(OC)ccc1-c1ccc(C[C@@H]2NC(=O)[C@H](CC(=O)O)NC(=O)[C@H](CO)NC(=O)[C@H]([C@@H](C)O)NC(=O)[C@](C)(Cc3c(F)cccc3F)NC(=O)[C@H]([C@@H](C)O)NC(=O)CNC(=O)[C@H](CCC(=O)O)NC(=O)[C@@H]3CCCN3C(=O)[C@H](Cc3cnc[nH]3)NC(=O)[C@H](CO)NC(=O)[C@@H]3CSSC[C@H](NC(=O)[C@H](CCCc4ccccc4)NC2=O)C(=O)NCC(=O)NCC(=O)N[C@@H](C(C)C)C(=O)N[C@@H](C(C)C)C(=O)N[C@@H](C(C)C)C(=O)NCC(=O)N[C@@H](C(C)C)C(=O)N[C@@H](C(C)C)C(=O)N3)cc1 (cyclo(CGGVVVGVVCSHPEGT[αMePhe(2,6-F2)]TSD[Bip(2'-Et-4'-OMe)][hhPhe]); disulfide 1-10) — 2.3-fold higher, 1000 nM
